This is an account of results in the supplement of paper PMC10307832.

Holding throughout (assay): relative viability (nuclei count vs DMSO), 5 days (fraction); higher = more cells survive
Compound in assay [1]: Cc1cc([C@@H](C)Nc2ccccc2C(=O)O)c2nc(N3CCOCC3)cc(=O)n2c1 [AZD6482] + C[C@@H](Oc1cc(-c2cnn(C3CCNCC3)c2)cnc1N)c1c(Cl)ccc(F)c1Cl [Crizotinib] (partner 1 µM)
In a few lines: (§1)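 Values are medians from duplicate plates. Each reflects relative viability, defined as the nuclei count of treated wells over that of vehicle wells. Lung cancer cell lines in 1536-well plates were pin-tool dosed one day after seeding with one drug alone or with a fixed anchor-drug dose plus five library-drug doses (not always all listed) in √10 steps, then fixed, stained and imaged at 4× after 5 days.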

Compound in assay [2]: Cc1cc([C@@H](C)Nc2ccccc2C(=O)O)c2nc(N3CCOCC3)cc(=O)n2c1 [AZD6482] + C[C@]1(O)C[C@@H](c2nc(-c3ccc4ccc(-c5ccccc5)nc4c3)c3c(N)nccn32)C1 [Linsitinib] (partner 1 µM)
The essentials:
as §1

Compound in assay [3]: COc1cc2nc(N3CCCN(C)CC3)nc(NC3CCN(Cc4ccccc4)CC3)c2cc1OC + COc1cc2c(Oc3ccc(NC(=O)C4(C(=O)Nc5ccc(F)cc5)CC4)cc3F)ccnc2cc1OCCCN1CCOCC1 [Foretinib] (partner 0.25 µM)
In a few lines: as §1

Compound in assay [4]: Cc1cc([C@@H](C)Nc2ccccc2C(=O)O)c2nc(N3CCOCC3)cc(=O)n2c1 [AZD6482] + CS(=O)(=O)N1CCN(Cc2cc3nc(-c4cccc5[nH]ncc45)nc(N4CCOCC4)c3s2)CC1 [Pictilisib] (partner 1 µM)
The essentials:
as §1

Consider UMC-11, for which the relative viability in assay [1] (first compound 0.08 µM) was determined as 0.505; in assay [1] (first compound 0.253 µM) it was 0.578; in assay [1] (first compound 0.8 µM) it was 0.628; in assay [1] (first compound 2.53 µM), 0.516; in assay [1] (first compound 8 µM), 0.511; in assay [2] (first compound 0.08 µM) it was 0.959. The relative viability amounted to 0.962 in assay [2] (first compound 0.253 µM); 0.987 in assay [2] (first compound 0.8 µM); 0.787 in assay [2] (first compound 2.53 µM); 1 in assay [2] (first compound 8 µM); 0.943 in assay [3] (first compound 0.2 µM); 1.05 in assay [3] (first compound 0.6325 µM). The relative viability stood at 1.15 in assay [3] (first compound 2 µM); 0.826 in assay [3] (first compound 6.325 µM); 0.757 in assay [4] (first compound 0.08 µM); 0.817 in assay [4] (first compound 0.253 µM); 0.841 in assay [4] (first compound 0.8 µM); 0.503 in assay [4] (first compound 2.53 µM). The relative viability in assay [4] (first compound 8 µM) is 1.04.
